Assay results published in article PMC9317316, “Synthesis and Evaluation of Some New 4H-Pyran Derivatives as Antioxidant, Antibacterial and Anti-HCT-116 Cells of CRC, with Molecular Docking, Antiproliferative, Apoptotic and ADME Investigations” (Pharmaceuticals, 2022).
Several values for one entry are separate records, joined by “and”; a condition that tells them apart may be missing. Equal values may be shown once. Read-outs that look alike come from different tables or passages of the source.

Experiments:
S. enteric (ATCC 43972) [1] = assay: Antibacterial viability (CFU) assay, IC50; type: cell-based; conditions: read-out: IC50
Method: (§1) The results for the in vitro antibacterial properties of the synthesized compounds against five Gram-positive and four Gram-negative human-pathogenic strains, which were assessed by both the agar diffusion method (based on inhibition zone (IZ)) and the broth dilution bioassay (for the determination of the half-maximal inhibitory concentration (IC50) values), using ampicillin as the reference antibiotic drug, are shown in Table 2 and Table 3.
(§2) The antibacterial activity of all synthesized compounds was evaluated against the Gram-negative strains E. coli (ATCC 25966), K. pneumonia (ATCC 700603), P. aeruginosa (ATCC 27853) and S. enteric (ATCC 43972) and against the Gram-positive strains B. cereus (ATCC 14579), B. subtilis (ATCC 6633), E. faecalis (ATCC 29122), S. aureus (ATCC 25923) and S. epidermidis (ATCC 14990), using the agar diffusion method through measuring the appearance of the inhibition zone on the surface of the top agar, as reported by Berghe and Vlietinck. Ampicillin (10 µg/well) was used as the positive reference standard. Bacterial viability was also investigated by determining the colony-forming ability (CFU) of bacteria incubated at different time intervals without or with appropriate amounts of the compound, which were mixed with 2 ×10^7 CFU/mL in sterile BHI and incubated under shaking for 60 min at 37 °C. Samples were serially diluted into sterile BHI, streaked onto media agar plates and incubated for 24 h at 37 °C. The antibacterial potency of the tested compounds was expressed as the residual number of CFUs with reference to the initial inoculums. The results presented as the half-maximal (50 %) inhibitory concentration (IC50) values are the means of three different measurements.

S. aureus (ATCC 25923) [2] = assay: Antibacterial viability (CFU) assay, IC50; type: cell-based; conditions: Staphylococcus aureus, ATCC25923
Method: as §1, §2

[3] = system: K. pneumonia (ATCC 700603); assay: Antibacterial viability (CFU) assay, IC50; type: cell-based; conditions: Klebsiella pneumoniae, ATCC700603
Method: as §1, §2

E. coli (ATCC 25966) [4] = assay: Antibacterial viability (CFU) assay, IC50; type: cell-based; conditions: Escherichia coli, ATCC25966; E. coil (ATCC 25966)
Method: as §1, §2

E. faecalis (ATCC 29122) [5] = assay: Antibacterial viability (CFU) assay, IC50; type: cell-based; conditions: Enterococcus faecalis, ATCC29122
Method: as §1, §2

[6] = system: S. epidermidis (ATCC 14990); assay: Antibacterial viability (CFU) assay, IC50; type: cell-based; conditions: Staphylococcus epidermidis, ATCC14990
Method: as §1, §2

[7] = system: P. aeruginosa (ATCC 27853); assay: Antibacterial viability (CFU) assay, IC50; type: cell-based; conditions: Pseudomonas aeruginosa, ATCC27853
Method: as §1, §2

B. cereus (ATCC 14579) [8] = assay: Antibacterial viability (CFU) assay, IC50; type: cell-based; conditions: Bacillus cereus, ATCC14579
Method: as §1, §2

B. subtilis (ATCC 6633) [9] = assay: Antibacterial viability (CFU) assay, IC50; type: cell-based
Method: as §1, §2

HCT-116 cells = assay: Cell viability (cytotoxicity, LDH release) assay; type: cell-based; conditions: Homo sapiens, 24 h; for viability at 100 µg/mL: read-out: percent of viable cells
Method: The synthesized compounds were also examined at four concentrations (10, 25, 50 and 100 µg/mL) for their cytotoxic effects on human colorectal cancer HCT-116 cells after their incubation together for 24 h.
Cytotoxic potency was examined for a human colon cancer cell line HCT-116 (American Type Culture Collection; Manassas, VA, USA) using various amounts of each compound (10, 25, 50 and 100 µg). Samples were diluted in Dulbecco’s Modified Eagle’s Medium, consisting of 10% Fetal Bovine Serum, and added to cells grown and cultured for 24 h in a 5% CO2-humidified incubator at 37 °C. Then, the activity of lactate dehydrogenase released from damaged cells was determined in the collected supernatant aliquots using an ELISA endpoint assay (Benchmark Plus, Bio-Rad, Hercules, CA, USA). As positive and negative controls, respectively, 0.1% Triton X-100 in the assay medium and the assay medium only were used. Cell viability, shown as mean values ± SDs (n = 3), was expressed as a relative percentage of the OD values determined at 600 nm in compound-treated cells and the control.

S. enteric (ATCC 43972) [10] = assay: Antibacterial agar diffusion method (inhibition zone); type: cell-based
Method: as §1, §2

S. aureus (ATCC 25923) [11] = assay: as above; type: cell-based
Method: as §1, §2

[12] = system: K. pneumonia (ATCC 700603); assay: as above; type: cell-based
Method: as §1, §2

E. coli (ATCC 25966) [13] = assay: as above; type: cell-based; conditions: E. coil (ATCC 25966)
Method: as §1, §2

E. faecalis (ATCC 29122) [14] = assay: as above; type: cell-based
Method: as §1, §2

[15] = system: S. epidermidis (ATCC 14990); assay: as above; type: cell-based
Method: as §1, §2

[16] = system: P. aeruginosa (ATCC 27853); assay: as above; type: cell-based
Method: as §1, §2

B. cereus (ATCC 14579) [17] = assay: as above; type: cell-based
Method: as §1, §2

B. subtilis (ATCC 6633) [18] = assay: as above; type: cell-based
Method: as §1, §2

[19] = Reducing power assay (FRAC, Fe3+ to Fe2+); conditions: 0-1 mg/mL, absorbance 700 nm
Method: Secondly, FRAC was determined over the concentration range of 0.0−1 mg/mL via monitoring Fe^3+−Fe^2+ transformation in the presence of the studied compounds and the reference antioxidant BHT to estimate the values of efficient concentration (EC50), expressed in mM.
The reducing power of the studied compounds was assessed according to Oyaizu’s method. Briefly, different concentrations (ranging from 0 to 1 mg/mL) of each tested compound were first mixed with 1 mL of 0.2 M sodium phosphate buffer (pH 6.6) and 1 mL of 1% potassium ferricyanide (K3Fe(CN)6) and incubated at 50 °C for 20 min. After the addition of 1.25 mL of 20% trichloroacetic acid (TCA), the mixture was centrifuged for 10 min at 3000 rpm and the upper layer solution was then mixed with 0.5 mL of 0.1% fresh ferric chloride and an equal volume of deionized water. Finally, the absorption of the resulting mixture was measured at 700 nm using a UV spectrophotometer against distilled water as the blank, while butylated hydroxytoluene (BHT) was used as a positive control. The sample ferric reducing power capability was indicated by increased absorbance.

[20] = DPPH radical scavenging assay; conditions: for IC50: 0.03 to 1 mg/mL, 1 h, mean ± SD, triplicate, read-out: IC50 (mM) for DPPH Scavenging Potency
Method: The IC50 values for DPPH were calculated from the plot of the scavenging effect against the compound concentration.
The compounds’ capacities to scavenge the stable radical 1,1 diphenyl-2-picrylhydrazyl (DPPH) formed in solution by donation of a hydrogen atom or an electron was investigated according to the method described by Bersuder and coworkers. Due to the fact that the initial blue/purple solution of diphenyl picrylhydrazine changes to yellow in the presence of compounds with a capacity to scavenge DPPH free radicals, this reaction is used as a measure of a compound’s ability to scavenge any free radical. Briefly, a 0.5 mL volume of DPPH ethanolic solution was mixed with an equal volume of each sample concentration (0.03 to 1 mg/mL), shaken strongly and incubated at room temperature for 1 h in darkness. The absorbance of the residual DPPH radicals was measured at 519 nm and compared to that of the control (without the tested compound). DPPH radical scavenging was calculated using the following formula: Scavenging effect (%) = (1 − Acompound/AControl) × 100, where Acompound and Acontrol are the absorbances of the tested compound and of the control, respectively. A plot of the scavenging effect (%) versus the sample concentration was also performed to determine the compound concentration providing 50% inhibition (IC50).

[21] = Bacillus subtilis, ATCC6633, B. subtilis (ATCC 6633)
[22] = read-out: Mean IC50 (µM) of cytotoxicity
[23] = read-out: Mean IC50 (µg/mL) of cytotoxicity

| Compound | IC50 (S. enteric (ATCC 43972) [1]) | IC50 (S. aureus (ATCC 25923) [2]) | IC50 [3] | IC50 (E. coli (ATCC 25966) [4]) | IC50 (E. faecalis (ATCC 29122) [5]) | IC50 [6] | IC50 [7] | IC50 (B. cereus (ATCC 14579) [8]) | IC50 (B. subtilis (ATCC 6633) [9]; [21]) | viability at 100 µg/mL (HCT-116 cells) | IC50 (HCT-116 cells; [22]) | IC50 (HCT-116 cells; [23]) | IZ (mm) (S. enteric (ATCC 43972) [10]) | IZ (mm) (S. aureus (ATCC 25923) [11]) | IZ (mm) [12] | IZ (mm) (E. coli (ATCC 25966) [13]) | IZ (mm) (E. faecalis (ATCC 29122) [14]) | IZ (mm) [15] | IZ (mm) [16] | IZ (mm) (B. cereus (ATCC 14579) [17]) | further results |
| --- | --- | --- | --- | --- | --- | --- | --- | --- | --- | --- | --- | --- | --- | --- | --- | --- | --- | --- | --- | --- | --- |
| CCOC(=O)C1=C(C)OC(N)=C(C#N)C1c1cccc(-c2ccccc2)c1 (stereo not shown) [4e, 6-Amino-4-biphenyl-3-yl-5-cyano-2-methyl-4H-pyran-3-carboxylic acid ethyl ester] | 96.1 ± 2.5 µM | 34.8 ± 2.16 µM | 90.7 ± 2.78 µM | 103 ± 3.05 µM | 37.3 ± 2.16 µM | 30.8 ± 1.58 µM | 88 ± 2.78 µM | 33.6 ± 1.58 µM | 37.7 ± 1.58 µM | 11 to 32.5% | 138 ± 9.78 µM | 49.7 ± 3.53 µg/mL | 3.5 ± 0.7 mm | 16.50 ± 2.10 mm | 2.5 ± 0.7 mm | 2.7 ± 0.35 mm | 15.50 ± 0.71 mm | 20.50 mm and 20.50 ± 2.12 mm | 4.5 ± 0.7 mm | 23.00 ± 1.41 mm | IZ (mm) (B. subtilis (ATCC 6633) [18]): 20.50 ± 0.71 mm; EC50 [19]: 305 ± 39 µM; melting point: 186 to 190 °C; IC50 [20]: 1.65 ± 0.097 mM; DPPH Radical Scavenging Effenciency (%) at 1 mg/mL [20]: 39.25 ± 1.06% |
| COC(=O)C1=C(C)OC(N)=C(C#N)C1c1cccc(O)c1Cl (stereo not shown) [4f, 6-Amino-4-(2-chloro-3-hydroxy-phenyl)-5-cyano-2-methyl-4H-pyran-3-carboxylic acid methyl ester] | 94.2 ± 3.43 µM | 38.4 ± 1.31 µM | 82 ± 3.43 µM | 95.7 ± 5.61 µM | 34.6 ± 0.59 µM | 33 ± 2.65 µM | 105 ± 2.81 µM | 42.4 ± 2.65 µM | 23.6 to 36.8 µM | 55.5% | 333 ± 13.4 µM | 107 ± 4.29 µg/mL | 6.5 ± 0.7 mm | 16.50 ± 0.71 mm | 4.5 ± 0.7 mm | 7.5 ± 0.71 mm | 19.00 ± 1.41 mm | 14.50 ± 0.71 mm | 6.0 ± 1.4 mm | 22.50 ± 0.71 mm | IC50 (B. subtilis (ATCC 6633) [9]; B. subtilis (ATCC 6633)): 36.8 ± 0.87 µM; IZ (mm) (B. subtilis (ATCC 6633) [18]): 19.50 ± 0.71 mm; EC50 [19]: 398 ± 45 µM; melting point: 238 to 240 °C; IC50 [20]: 3.34 ± 0.131 mM; DPPH Radical Scavenging Effenciency (%) at 1 mg/mL [20]: 43.75 ± 1.77% |
| CCOC(=O)C1=C(C)OC(N)=C(C#N)C1c1c(OC)cc(OC)cc1OC (stereo not shown) [4h, 6-Amino-5-cyano-2-methyl-4-(2,4,6-trimethoxy-phenyl)-4H-pyran-3-carboxylic acid ethyl ester] | 112 ± 2.94 µM | 32.7 ± 0.93 µM | 118 ± 2.67 µM | 114 ± 0.8 µM | 45.9 ± 0.75 µM | 35.8 ± 1.52 µM | 89.5 ± 2.94 µM | 46.5 ± 1.52 µM | 50.1 ± 2.83 µM | 11 to 32.5% | 185 ± 11.5 µM | 69.2 ± 4.29 µg/mL | 5.5 ± 0.7 mm | 17.50 mm and 17.50 ± 0.71 mm | 3.5 ± 0.7 mm | 1.5 ± 0.71 mm | 8.00 ± 1.41 mm | 16.50 ± 0.71 mm | 4.5 ± 0.7 mm | 4.50 ± 0.71 mm | IZ (mm) (B. subtilis (ATCC 6633) [18]): 6.00 ± 1.41 mm; EC50 [19]: 221 ± 11 µM; melting point: 196 to 198 °C; IC50 [20]: 1.31 ± 0.075 mM; DPPH Radical Scavenging Effenciency (%) at 1 mg/mL [20]: 33.50 ± 2.12% |
